In EP4005565A1 (priority 2020, dated 2022):
Where a name gives a salt, the structure may show the parent alone. Read-outs that look alike come from different tables or passages of the source.

Assays:
[1] = tested on: SARS-CoV-2 (viral strain INMI1); experiment: Antiviral activity assay with nucleoprotein readout (ELISA) in infected Vero E6 cells; format: cell-based; conditions: Severe acute respiratory syndrome coronavirus 2, Vero C1008, 72 h, read-out: IC50, SARS-CoV-2 replication (virus nucleoprotein in % of infected untreated control)
Description: The cell line is routinely maintained in DMEM supplemented with 1% glutamine, 1% penicillin/streptomycin and 10% fetal bovine serum and can be infected with SARS-CoV-2 (Ogando et al., 2020).
Exponentially growing Vero E6 cells were seeded into a 96-well plate at their optimal density in complete medium. […] Drug dilutions were performed in culture medium. Replicates for each concentration point were examined. At the end of the incubation period, antiviral activity was examined through both ELISA (Sino Biological, quantifying SARS-CoV-2 nucleoprotein) as well as a cytoprotection assay (toxicity effect examined through an inverted microscope). An inhibitory concentration 50% (IC50) value was calculated through interpolation of the dose-response curves generated.
The nucleoprotein was quantified by ELISA. Results are means ± SD of 2-4 experiments.

[2] = cited from earlier work
lysosomal uptake = conditions: at 10µM (Smieszek et al., 2020); cited from earlier work
[3] = biological target: binding of the viral spike protein to ACE2 (UniProt P0DTC2+Q9BYF1); conditions: Fink et al. in prep; cited from earlier work
Sequence of binding of the viral spike protein to ACE2 (Q9BYF1 18-805, one chain of several): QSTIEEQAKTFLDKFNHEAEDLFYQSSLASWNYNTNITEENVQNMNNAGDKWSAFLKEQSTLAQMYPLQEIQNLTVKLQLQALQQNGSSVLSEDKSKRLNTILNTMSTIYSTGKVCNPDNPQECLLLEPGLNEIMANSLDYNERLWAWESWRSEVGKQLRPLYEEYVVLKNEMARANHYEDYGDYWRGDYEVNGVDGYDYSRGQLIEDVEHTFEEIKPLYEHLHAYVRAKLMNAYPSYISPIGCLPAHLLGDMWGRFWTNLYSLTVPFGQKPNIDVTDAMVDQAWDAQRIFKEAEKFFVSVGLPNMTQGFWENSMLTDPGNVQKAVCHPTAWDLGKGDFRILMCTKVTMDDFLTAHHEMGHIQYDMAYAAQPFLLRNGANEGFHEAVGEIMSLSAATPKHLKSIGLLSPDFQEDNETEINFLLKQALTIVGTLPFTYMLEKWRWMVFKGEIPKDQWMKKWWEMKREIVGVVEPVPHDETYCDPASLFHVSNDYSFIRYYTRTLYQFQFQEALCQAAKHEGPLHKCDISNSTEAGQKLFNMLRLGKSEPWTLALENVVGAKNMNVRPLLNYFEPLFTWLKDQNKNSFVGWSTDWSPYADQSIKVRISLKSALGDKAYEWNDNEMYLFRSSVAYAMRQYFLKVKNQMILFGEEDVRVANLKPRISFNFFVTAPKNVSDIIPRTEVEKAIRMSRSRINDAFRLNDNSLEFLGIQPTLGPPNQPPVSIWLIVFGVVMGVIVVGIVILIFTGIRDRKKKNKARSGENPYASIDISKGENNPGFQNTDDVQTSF

influenza A [4] = conditions: inhalation, cited from earlier work
influenza A [5] = conditions: inhaled at 6mg/kg/d (Fenton et al., 1977); cited from earlier work
influenza A [6] = conditions: 20 influenza A patients; inhalative 1%, 20mg/d, 3x20min, 4d (Hayden et al., 1980); cited from earlier work
[7] = cited from earlier work; remark: listed apart in the source
[8] = 7 volunteers and 3 influenza patients; 1.5%, up to 9h, 2x6h, 10-11h in 3d (Knight et al., 1979); cited from earlier work
SARS-CoV-2 = experiment: Treatment of a SARS-CoV-2 positive patient with nebulized amantadine hemisulfate (Example 2); format: in vivo; conditions: 0.4mg/ml inhaled every 2 h for 30min 6 times per day, 7 days
Description: A patient who had contact 2 days ago with a colleague who turned out to be SARS-CoV-2 positive the day after the meeting, consults their primary care physician. […] The RT-PCR test for SARS-CoV-2 of a nasal swab is also positive; HR is 78/min, BP is 120/80mmHg, BR is 15/min, peripheral O2 saturation is 97%, no further health issues are diagnosed. The patient is diagnosed with Covid-19 and isolated in home quarantine with daily doctor calls to evaluate their health status. […] The treatment is continued for 7 days. […] They recover within 14 days after treatment start.

`NC12CC3CC(CC(C3)C1)C2` [amantadine hydrochloride] gave an IC50 [1] of 88 µM.
For `NC12CC3CC(CC(C3)C1)C2` [amantadine, 1-Adamantylamine], the “plasma concentration after inhalative administration” value ([2]; healthy human volunteers, inhalation (Hayden et al., 1979)) is listed as 0.13 µM, the plasma concentrations ([2]; patients receiving regularly 600 mg orally per day (Brenner et al., 1989)) is listed as “up to 14.6 µM” and the reduced lysosomal uptake (lysosomal uptake) is listed as 50%. The “Interference with the binding of the viral spike protein to ACE2 on target cells” value [3] was “can be ruled out”, the virus load (influenza A [4]; 40 mg/d retained dose (Wilson et al., 1980)) was “reduced virus load” and the effect on survival (influenza A [4]; 22h/day, 4mg/d retained dose (Walker et al., 1976)) was “positive effect on survival”. For the same molecule, the virus load (influenza A [5]) was “reduced virus load”, the symptoms (influenza A [6]) was “improved symptoms” and the virus load (influenza A [6]) was “reduced virus load”. For the same molecule, the “serum concentrations in intoxication case” value ([7]; human, in vivo) was 15.9 µM, the “plasma concentration at which aggressive behaviour was observed” value ([7]; patients, plasma) was 5.5 to 6.6 µM and the “plasma concentration at which depression and confusion were observed” value ([7]; patients, plasma) was 19.9 µM. The “plasma concentration at which seizures were observed” value ([7]; patients, plasma) was 13.2 µM and the “safety of inhalative administration” value [8] was “safe and irritation-free”.
In the case of amantadine hemisulfate, the “breathing problems during treatment” value (SARS-CoV-2) is reported as “does not suffer from breathing problems”, the fever during treatment (SARS-CoV-2) is reported as “transiently minor fever” and the “time to recovery after treatment start” value (SARS-CoV-2) is reported as no more than 14 days.
